{"source": "patent US5013722A", "about": "“Cholecystokinin analogs for controlling appetite” (Hoffmann-LaRoche Inc., priority 1989, dated 1991)", "key": {"[1]": {"target": "T1, Rat kidney metalloendopeptidase (Rattus norvegicus, UniProt P07861)", "T1 construct": "from tissue; host or cells: rat kidney", "T1 sequence (P07861 1-750)": "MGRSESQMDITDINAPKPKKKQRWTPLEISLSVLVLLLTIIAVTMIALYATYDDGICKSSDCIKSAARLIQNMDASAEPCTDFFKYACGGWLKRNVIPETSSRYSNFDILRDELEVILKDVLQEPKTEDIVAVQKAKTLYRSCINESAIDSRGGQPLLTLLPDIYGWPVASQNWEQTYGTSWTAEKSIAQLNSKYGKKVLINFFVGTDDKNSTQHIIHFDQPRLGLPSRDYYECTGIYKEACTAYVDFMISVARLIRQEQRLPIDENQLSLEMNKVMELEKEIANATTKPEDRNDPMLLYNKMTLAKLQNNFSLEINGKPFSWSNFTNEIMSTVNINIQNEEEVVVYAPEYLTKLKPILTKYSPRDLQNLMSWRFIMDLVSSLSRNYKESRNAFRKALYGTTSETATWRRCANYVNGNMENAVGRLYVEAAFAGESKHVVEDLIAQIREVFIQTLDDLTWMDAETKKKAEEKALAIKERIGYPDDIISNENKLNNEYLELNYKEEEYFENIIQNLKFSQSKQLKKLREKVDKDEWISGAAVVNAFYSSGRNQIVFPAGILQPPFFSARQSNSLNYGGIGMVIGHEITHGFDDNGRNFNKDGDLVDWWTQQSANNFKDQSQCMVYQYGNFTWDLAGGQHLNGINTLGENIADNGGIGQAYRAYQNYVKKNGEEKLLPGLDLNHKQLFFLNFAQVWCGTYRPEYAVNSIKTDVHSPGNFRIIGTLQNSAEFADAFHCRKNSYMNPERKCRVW", "experiment": "Degradation by rat kidney metalloendopeptidase (HPLC)", "format": "in vitro ADME", "settings": "for % Degradation by Height: 37° C., pH 7.6", "description": "Rat kidney metalloendopeptidase (0.01 μg) and 5 nmol of peptide were incubated in 2 μmol tris-HCl buffer (pH 7.6) and at 37° C. for varying periods of time. The degradation of the peptide was monitored by analytical HPLC on a 5 micron Adsorbosphere-ODS column with a 0-50% CH3 CN gradient in 0.1N potassium phosphate, pH 3.0, with UV detection at 210 nm. Rates are based on presumed production of Asp-Tyr(SO3 H)-Met-Gly for CCK-8 and the presumed production of Ac-Tyr(SO3 H)-Met-Gly for Example 2 and 3."}, "[2]": {"target": "T2, receptors in bovine striatum (3H-CCK-8-(SO3 H) binding, central receptor) (Bos taurus, UniProt P79266)", "T2 construct": "receptors in homogenized preparations of rat pancreatic cells and bovine striata; from tissue; host or cells: bovine striatum homogenate (48,000 x g pellet)", "T2 sequence (P79266 1-454)": "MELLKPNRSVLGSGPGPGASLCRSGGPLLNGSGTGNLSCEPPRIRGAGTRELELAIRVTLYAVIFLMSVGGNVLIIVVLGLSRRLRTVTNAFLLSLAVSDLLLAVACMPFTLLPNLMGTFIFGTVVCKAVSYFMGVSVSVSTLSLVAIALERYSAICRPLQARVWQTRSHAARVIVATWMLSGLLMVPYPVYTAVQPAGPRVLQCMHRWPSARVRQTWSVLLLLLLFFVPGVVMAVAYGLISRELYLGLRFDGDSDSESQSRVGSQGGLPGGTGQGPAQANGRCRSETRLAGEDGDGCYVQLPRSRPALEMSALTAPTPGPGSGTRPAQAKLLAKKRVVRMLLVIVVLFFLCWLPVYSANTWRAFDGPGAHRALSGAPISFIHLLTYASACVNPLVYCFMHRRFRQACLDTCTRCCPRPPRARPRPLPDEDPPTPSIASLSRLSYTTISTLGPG", "experiment": "In vitro receptor binding assay, bovine striatum homogenate, 3H-CCK-8-(SO3H) radioligand", "settings": "0.15 nM radioligand, 30 min, 25° C.; read-out: Bovine Striatum IC50 (inhibition of specific 3H-CCK-8-(SO3H) binding)", "experimental": "Frozen bovine striatum (approx. 5 g) and fresh rat pancreas (approx. 5 g) cleaned of fat and extraneous tissue were homogenized in HEPES buffer #1 (10 mM HEPES+130 mM NaCl+5 mM MgCl2. pH 7.4) using 35 parts buffer per 1 part tissue on a wet weight/volume basis (approx. 175 ml). The tissue was homogenized 2 x for approx. 15 sec. at 0° C. using a Polytron homogenizer at a setting of 6. The tissue was isolated by centrifugation at 48,000 x g for 10 min. at 0° C. The resulting tissue pellet was resuspended in HEPES buffer #2 (10 mM HEPES+130 mM NaCl+5 mM MgCl2 +1 mg/L phenylmethanesulfonyl fluoride (PMSF)+200 mg/L Bacitracin): 1 part striatal tissue (original wet weight) per 80 parts buffer and 1 part pancreas tissue (original wet weight) per 70 parts buffer.\nIncubation was initiated by combining various concentrations of native CCK-8 or peptides of formula I, II and III with ^3 H-CCK-8-(SO3 H) (final conc.=0.15 nM) and tissue homogenate (striatum 0.26 mg protein in 2 ml final volume; pancreas 0.165 mg protein in 1 ml final volume). Samples were incubated for 30 min. at 25° C. and the incubation terminated by pouring the mixture onto a pre-wet Whatman GF/B filter on a Sandbeck Vacuum Filtration Manifold. The incubation tubes were washed with 2×3 ml of ice-cold HEPES Buffer #2 and the wash filtered through the GF/B filter. The filter was air dried for 10 min. and then placed in a scintillation vial with 12 ml of Beckman HP/b Ready-Solv scintillation cocktail. The vials were shaken for 2 hours and then counted using a Beckman Model 7800 liquid scintillation spectrometer. Non-specific binding was determined in the presence of 1 micromole native CCK-8 and subtracted from all samples to determine specific binding. The concentration of ^3 peptide necessary to inhibit 50% of total specific H-CCK-8-(SO3 H) binding (IC50 value) was determined by log-probit analysis."}}, "note": "Where a SMILES comes first, the peptide text is derived from it. [ ]: non-standard residue; d: D form. Thr(SO3H) = C[C@@H](OS(=O)(=O)O)[C@H](N)C(=O)O; sY = N[C@@H](Cc1ccc(OS(=O)(=O)O)cc1)C(=O)O; NMeF = CN[C@@H](Cc1ccccc1)C(=O)O"}
{"smiles": "CSCC[C@H](NC(=O)[C@H](Cc1ccc(OS(=O)(=O)O)cc1)NC(C)=O)C(=O)NCC(=O)N[C@@H](Cc1c[nH]c2ccccc12)C(=O)N[C@@H](CCSC)C(=O)N[C@H](C(=O)N(C)[C@@H](Cc1ccccc1)C(N)=O)[C@@H](C)OS(=O)(=O)O", "note": "[Example 2, Ac-Tyr(SO3 H)-Met-Gly-Trp-Met-Thr(SO3 H)-N-methyl-Phe-NH2] (Ac-[sY]MGWM[Thr(SO3H)][NMeF]-NH2)", "values": [{"measurement": "% Degradation by Height", "setting": "[1]; incubation 0 min", "value": 0, "unit": "%"}, {"measurement": "% Degradation by Height", "setting": "[1]; incubation 60 min", "value": 19.4, "unit": "%"}, {"measurement": "% Degradation by Height", "setting": "[1]; incubation 120 min", "value": 30.3, "unit": "%"}, {"measurement": "No. of Peaks (degradation products)", "setting": "[1]; incubation 240 min", "value": 2}, {"measurement": "% Degradation by Height", "setting": "[1]; incubation 240 min", "value": 56.4, "unit": "%"}, {"measurement": "IC50", "setting": "[2]", "value": "100 to 500", "unit": "nM"}]}
